Legend:
[1] = test system: 5GC (DNA, duplex) GCGCGCGCGC; assay: G4-FID fluorescent intercalator displacement; conditions: 100 mM KCl, 20 mM potassium phosphate; PBS pH 6.8, 25 °C; thiazole orange displaced
[2] = test system: 5GC (DNA, duplex) GCGCGCGCGC; assay: UV-Vis titration; conditions: 100 mM KCl, 20 mM potassium phosphate; PBS 0.1 mM EDTA pH 6.8, 25 °C; 2 μM ligand; apparent
[3] = test system: (G4T4G4)2 (DNA, G4) GGGGTTTTGGGG; assay: UV-Vis titration; conditions: 100 mM KCl, 20 mM potassium phosphate, PBS pH 6.8, 25 °C
[4] = test system: AG3(T2AG3)3 (DNA, G4) AGGGTTAGGGTTAGGGTTAGGG; assay: CD melting at 290 nm; conditions: 100 mM KCl, 20 mM potassium phosphate; PBS pH 6.8; 6 μM as printed for solutions; derived from two Tm
[5] = test system: (T2G5T)4 (DNA, G4) TTGGGGGT; assay: G4-FID fluorescent intercalator displacement; conditions: 100 mM KCl, 20 mM potassium phosphate; PBS pH 6.8, 25 °C; thiazole orange displaced
[6] = test system: AG3(T2AG3)3 (DNA, G4) AGGGTTAGGGTTAGGGTTAGGG; assay: UV-Vis titration; conditions: 100 mM KCl, 20 mM potassium phosphate; PBS 0.1 mM EDTA pH 6.8, 25 °C; 2 μM ligand; apparent
[7] = test system: AG3(T2AG3)3 (DNA, G4) AGGGTTAGGGTTAGGGTTAGGG; assay: fluorimetric titration, ligand fluorescence, Hill fit; conditions: 100 mM KCl, 20 mM potassium phosphate; 25 °C; 1 μM ligand, DNA 0-3 μM; apparent; Hill n ≈ 2
[8] = test system: AG3(T2AG3)3 (DNA, G4) AGGGTTAGGGTTAGGGTTAGGG; assay: G4-FID fluorescent intercalator displacement; conditions: 100 mM KCl, 20 mM potassium phosphate; PBS pH 6.8, 25 °C; thiazole orange displaced

Compound | DC50 [1] | KD [2] | binding ([3]; 2 μM ligand, red shift 15 nm) | ΔTm [4] | DC50 [5] | KD [6] | KD [7] | DC50 [8] | binding ([3]; red shift 13 nm) | binding ([3]; 2 μM ligand, red shift 17 nm)
COc1cc[n+](-c2cc3c(cc2-[n+]2ccc(OC)cc2)-c2nc-3nc3nc(nc4[n-]c(nc5[n-]c(n2)c2cc(-[n+]6ccc(OC)cc6)c(-[n+]6ccc(OC)cc6)cc52)c2cc(-[n+]5ccc(OC)cc5)c(-[n+]5ccc(OC)cc5)cc42)-c2cc(-[n+]4ccc(OC)cc4)c(-[n+]4ccc(OC)cc4)cc2-3)cc1.[Zn+2] | 1300 ± 210 nM | (4.74 ± 0.13) × 10^−4 M | yes | 11.8 °C | 1080 ± 80 nM | (7.61 ± 0.11) × 10^−8 M | 74 nM | 1040 ± 280 nM | – | –
C[n+]1ccc(-c2c3nc(c(-c4cc[n+](C)cc4)c4ccc([nH]4)c(-c4cc[n+](C)cc4)c4nc(c(-c5cc[n+](C)cc5)c5ccc2[nH]5)C=C4)C=C3)cc1 | 940 ± 200 nM | – | – | 7.0 °C | 1170 ± 200 nM | – | 290 nM | 1070 ± 90 nM | yes | –
C[n+]1ccc(Sc2cc3c(cc2Sc2cc[n+](C)cc2)-c2nc-3nc3nc(nc4[n-]c(nc5[n-]c(n2)c2cc(Sc6cc[n+](C)cc6)c(Sc6cc[n+](C)cc6)cc52)c2cc(Sc5cc[n+](C)cc5)c(Sc5cc[n+](C)cc5)cc42)-c2cc(Sc4cc[n+](C)cc4)c(Sc4cc[n+](C)cc4)cc2-3)cc1.[Zn+2] | 1930 ± 480 nM | (1.28 ± 0.17) × 10^−5 M | – | – | 1840 ± 30 nM | (9.58 ± 0.09) × 10^−6 M | 540 nM | 1950 ± 260 nM | – | yes
